Assays:
Format in all cases: biochemical
[1] = tested on: human genomic DNA (about 1.3 kb) with dUTP added; assay: Evaluation of uracil (dUTP) sensitivity by PCR with dUTP added to the reaction; details: for Evaluation of dUTP resisitance on a 11-point scale: closer to 0 = stronger sensitivity to dUTP, closer to 10 = lower sensitivity, summary of Examples 1 to 3; for dUTP resistance: dUTP added to 0.5, 5, 50, 100, 200 μM, about 1.3 kb, 30 cycles, 1 U enzyme
Procedure: The uracil sensitivity of the modified DNA polymerase of the present invention can be evaluated by PCR. For example, a dUTP solution is added at a final concentration of 0.5 μM to 200 μM to a common PCR reaction solution containing DNA as a template, a buffer, magnesium, dNTPs, primers, and a DNA polymerase to be evaluated, and thermal cycling is performed. After the reaction, the presence or absence of PCR products is confirmed by ethidium bromide-stained agarose electrophoresis, and the uracil sensitivity can be evaluated by the concentration of accepted dUTP. With a DNA polymerase having high uracil sensitivity, the extension reaction is inhibited by the addition of a small amount of dUTP, and PCR products cannot be confirmed. With a DNA polymerase having low uracil sensitivity, gene amplification by PCR can be confirmed without problem, even if a high concentration of dUTP is added. The modified DNA polymerase with low uracil sensitivity in the present invention refers to a DNA polymerase such that when optimum thermal cycling is performed using any primers and DNA as a template in a reaction buffer optimum for the enzyme, even if a high concentration of dUTP is added, an extension reaction is not inhibited and PCR products can be confirmed, compared to wild-type DNA polymerase, which has no mutation.
More specifically, 10× PCR buffer included in KOD-Plus-Ver. 2 (produced by Toyobo Co. Ltd.) or 10× PCR buffer included in Pfu DNA Polymerase (produced by Agilent) is used; dUTP (produced by Roche) is added to 50 μl of individual reaction solutions containing 1× PCR buffer, 1.5 mM MgSO4, dNTPs (dATP, dTTP, dCTP, and dGTP) in an amount of 0.2 mM, primers represented by SEQ ID NOs: 25 and 26 in an amount of 15 pmol for amplifying about 1.3 kb, 10 ng of human genomic DNA (produced by Roche), and 1 U of each respective enzyme, to final concentrations of 0.5, 5, 50, 100, and 200 μM. PCR is performed using a GeneAmp PCR system 9700 (Applied Biosystems) on the following schedule; preliminary reaction at 94° C. for 30 seconds, followed by 30 cycles, each cycle consisting of 98° C. for 10 seconds, 65° C. for 30 seconds, and 68° C. for 1 minute and 30 seconds. After the completion of each individual reaction, 5 μl of each of the resulting reaction solutions is subjected to agarose electrophoresis, followed by ethidium bromide staining. The uracil sensitivity can be evaluated by confirming amplified DNA fragments of about 1.3 kb under ultraviolet irradiation.
PCR was performed by the following method to evaluate uracil sensitivity. For PCR, components included in KOD-Plus-Ver. 2 (produced by Toyobo Co. Ltd.) were used. dUTP (produced by Roche) was added to 50 μl of individual reaction solutions containing 1× PCR buffer, 1.5 mM MgSO4, dNTPs (dATP, dTTP, dCTP, dGTP) in an amount of 0.2 mM, primers represented by SEQ ID NOs: 25 and 26 in an amount of 15 pmol for amplifying about 1.3 kb, 10 ng of human genomic DNA (produced by Roche), and 1 U of each respective enzyme, to final concentrations of 0.5, 5, 50, 100, and 200 μM. PCR was performed using a GeneAmp PCR system 9700 (produced by Applied Biosystems) on the following schedule: preliminary reaction at 94° C. for 30 seconds, followed by 30 cycles, each cycle consisting of 98° C. for 10 seconds, 65° C. for 30 seconds, and 68° C. for 1 minute and 30 seconds. After the completion of each individual reaction, 5 μl of each of the resulting reaction solutions was subjected to agarose electrophoresis, followed by ethidium bromide staining. Under ultraviolet irradiation, amplified DNA fragments of about 1.3 kb were confirmed. FIGS. 3, 4, 7, and 8 show the results.

482 bp of human β-globin = assay: PCR amplification of 482 bp of human β-globin with dUTP in place of dTTP; design: key to Results of PCR in the presence of dUTP 481 bp: A: Amplified; B: Amplified (faint band); C: Not amplified; details: for Results of PCR in the presence of dUTP 481 bp: dTTP replaced by dUTP, 35 cycles
Procedure: 482 bp of human β-globin was amplified to compare the amplification difference between the case of using dTTP and the case of using dUTP in PCR, and the sensitivity to dUTP was examined. For amplification, each enzyme was used after being mixed with 1 μg of a KOD antibody per U of the enzyme. For PCR, components included in KOD-Plus-Ver. 2 (produced by Toyobo Co. Ltd.) were used. General dNTPs (dATP, dTTP, dCTP, dGTP) in an amount of 0.2 mM were added to 50 μl of individual reaction solutions, and dNTPs (dATP, dUTP, dCTP, dGTP) in an amount of 0.2 mM in which dTTP was replaced by dUTP were added to 50 μl of individual reaction solutions. The reaction solutions contained 1× PCR buffer, 1.5 mM MgSO4, primers represented by SEQ ID NOs: 27 and 28 in an amount of 15 pmol for amplifying […], 10 ng of human genomic DNA (produced by Roche), and 1 U of each respective enzyme mixed with the antibody. PCR was performed using a GeneAmp PCR system 9700 (produced by Applied Biosystems) on the following schedule: preliminary reaction at 94° C. for 2 minutes, followed by 35 cycles, each cycle consisting of 98° C. for 10 seconds and 68° C. for 1 minute. After the completion of each individual reaction, each of the resulting reaction solutions was analyzed using to a DNA-1000 kit for MultiNA (produced by Shimadzu Corporation) to confirm amplified DNA fragments. FIGS. 5 and 6 show the results.

[2] = tested on: 1.3 kbp, 2.8 kbp, and 3.6 kbp of human β-globin; assay: Amplification of long-chain DNA in PCR using dUTP; design: key to Results of PCR in the presence of dUTP 1.3 kbp / Results of PCR in the presence of dUTP 2.8 kbp / Results of PCR in the presence of dUTP 3.6 kbp: A: Amplified; B: Amplified (faint band); C: Not amplified; details: dTTP replaced by dUTP, 35 cycles
Procedure: Amplification of 1.3 kbp, 2.8 kbp, and 3.6 kbp of human β-globin in PCR using dUTP was compared. For amplification, each enzyme was used after being mixed with 1 μg of a KOD antibody per U of the enzyme. For PCR, components included in KOD-Plus-Ver. 2 (produced by Toyobo Co. Ltd.) were used. 50 μl of individual reaction solutions containing 1× PCR buffer, 1.5 mM MgSO4, dNTPs (dATP, dUTP, dCTP, dGTP) in an amount of 2 mM in which dTTP was replaced by dUTP, primers in an amount of 15 pmol (SEQ ID NOs: 25 and 26 for amplification of 1.3 kbp; SEQ ID NOs: 26 and 29 for amplification of 2.8 kbp; SEQ ID NOs: 30 and 31 for amplification of 3.6 kbp), 10 ng of human genomic DNA (produced by Roche), and 1 U of each respective enzyme mixed with the antibody were used. PCR was performed using a GeneAmp PCR system 9700 (Applied Biosystems) on the following schedule: preliminary reaction at 94° C. for 2 minutes, followed by 35 cycles, each cycle consisting of 98° C. for 10 seconds, 65° C. for 30 seconds, and 68° C. for about 1 minute per kbp (1 minute and 30 seconds for amplification of 1.3 kbp; 3 minutes for amplification of 2.8 kbp; 4 minutes for amplification of 3.6 kbp). As a control, amplification was also performed using Taq DNA polymerase. Taq DNA polymerase produced by Toyobo Co. Ltd. mixed with Anti-Taq High (produced by Toyobo Co. Ltd.) was used. 50 μl of a reaction solution containing 1× buffer included in Blend Taq, dNTPs (dATP, dUTP, dCTP, dGTP) in an amount of 2 mM in which dTTP was replaced by dUTP, primers in an amount of 10 pmol the same as the above), 10 ng of human genomic DNA (produced by Roche), and 2.5 U of the enzyme mixed with the antibody was used. PCR was performed using a GeneAmp PCR system 9700 (produced by Applied Biosystems) on the following schedule: preliminary reaction at 94° C. for 2 minutes, followed by 35 cycles, each cycle consisting of 94° C. for 30 seconds, 65° C. for 30 seconds, and 68° C. for about 1 minute per kbp (1 minute and 30 seconds for amplification of 1.3 kbp; 3 minutes for amplification of 2.8 kbp; 4 minutes for amplification of 3.6 kbp). After the completion of each individual reaction, 5 μl of each of the resulting reaction solutions was subjected to agarose electrophoresis, followed by ethidium bromide staining, and the amount of amplified DNA fragments was confirmed under ultraviolet irradiation. FIGS. 9 and 10 show the results.

KOD H147E/Y7A/P36H/V93K: KOD H147E (exo(+)) mutant with Y7A, P36H and V93K
Evaluation of dUTP resisitance on a 11-point scale [1]: 0
Results of PCR in the presence of dUTP 481 bp (482 bp of human β-globin): C
Results of PCR in the presence of dUTP 1.3 kbp [2]: C
Results of PCR in the presence of dUTP 2.8 kbp [2]: C
Results of PCR in the presence of dUTP 3.6 kbp [2]: C

KOD H147E/Y7A/P36R/V93K: KOD H147E (exo(+)) mutant with Y7A, P36R and V93K
Evaluation of dUTP resisitance on a 11-point scale [1]: 0
Results of PCR in the presence of dUTP 481 bp (482 bp of human β-globin): C
Results of PCR in the presence of dUTP 1.3 kbp [2]: C
Results of PCR in the presence of dUTP 2.8 kbp [2]: C
Results of PCR in the presence of dUTP 3.6 kbp [2]: C

KOD N210D/P36K: KOD N210D (exo(−)) mutant with P36K
Evaluation of dUTP resisitance on a 11-point scale [1]: 8
dUTP resistance [1]: >200 µM
Results of PCR in the presence of dUTP 481 bp (482 bp of human β-globin): A

KOD Y7A/P36H/V93K: modified KOD DNA polymerase with Y7A, P36H and V93K
Evaluation of dUTP resisitance on a 11-point scale [1]: 0
Results of PCR in the presence of dUTP 481 bp (482 bp of human β-globin): C
Results of PCR in the presence of dUTP 1.3 kbp [2]: C
Results of PCR in the presence of dUTP 2.8 kbp [2]: C
Results of PCR in the presence of dUTP 3.6 kbp [2]: C

KOD Y7A/P36K: modified KOD DNA polymerase with Y7A and P36K
sensitivity to dUTP / amount of amplification, comparison with single mutants or wild type ([1]; dUTP added to PCR (FIGS. 3 and 4)): more tolerant of the addition of high concentration of dUTP and provided a larger amount of amplification
PCR amplification of 482 bp with dUTP (482 bp of human β-globin; 100% dUTP instead of dTTP (FIGS. 5 to 8)): allowed for PCR amplification

KOD Y7A/P36R/V93K: modified KOD DNA polymerase with Y7A, P36R and V93K
Evaluation of dUTP resisitance on a 11-point scale [1]: 0
Results of PCR in the presence of dUTP 481 bp (482 bp of human β-globin): C
Results of PCR in the presence of dUTP 1.3 kbp [2]: C
Results of PCR in the presence of dUTP 2.8 kbp [2]: C
Results of PCR in the presence of dUTP 3.6 kbp [2]: C

B1: KOD P36K: modified KOD DNA polymerase with P36K (protein, listed as Thermococcus kodakaraensis)
chain: MILDTDYITEDGKPVIRIFKKENGEFKIEYDRTFEKYFYALLKDDSAIEEVKKITAERHGTVVTVKRVEKVQKKFLGRPVEVWKLYFTHPQDVPAIRDKIREHPAVIDIYEYDIPFAKRYLIDKGLVPMEGDEELKMLAFDIETLYHEGEEFAEGPILMISYADEEGARVITWKNVDLPYVDVVSTEREMIKRFLRVVKEKDPDVLITYNGDNFDFAYLKKRCEKLGINFALGRDGSEPKIQRMGDRFAVEVKGRIHFDLYPVIRRTINLPTYTLEAVYEAVFGQPKEKVYAEEITTAWETGENLERVARYSMEDAKVTYELGKEFLPMEAQLSRLIGQSLWDVSRSSTGNLVEWFLLRKAYERNELAPNKPDEKELARRRQSYEGGYVKEPERGLWENIVYLDFRSLYPSIIITHNVSPDTLNREGCKEYDVAPQVGHRFCKDFPGFIPSLLGDLLEERQKIKKKMKATIDPIERKLLDYRQRAIKILANSYYGYYGYARARWYCKECAESVTAWGREYITMTIKEIEEKYGFKVIYSDTDGFFATIPGADAETVKKKAMEFLKYINAKLPGALELEYEGFYKRGFFVTKKKYAVIDEEGKITTRGLEIVRRDWSEIAKETQARVLEALLKDGDVEKAVRIVKEVTEKLSKYEVPPEKLVIHEQITRDLKDYKATGPHVAVAKRLAARGVKIRPGTVISYIVLKGSGRIGDRAIPFDEFDPTKHKYDAEYYIENQVLPAVERILRAFGYRKEDLRYQKTRQVGLSAWLKPKGT
Evaluation of dUTP resisitance on a 11-point scale [1]: 3
dUTP resistance [1]: 100 µM
PCR products on addition of dUTP ([1]; some amount of dUTP added): PCR products were confirmed
Results of PCR in the presence of dUTP 481 bp (482 bp of human β-globin): A
